# Results: US20110218188A1, “SUBSTITUTED (PYRIDYL)-AZINYLAMINE DERIVATIVES AS FUNGICIDES” (priority 2008, published 2011)
# Assay: Measurement of logP values by HPLC on reversed phase columns (EEC directive 79/831 Annex V.A8)
# Format: physicochemical
# Conditions: pH 2.7
Structure (SMILES),logP,chromatographic logP
CC(C)N(C)C(=O)c1cc(-c2ncnc(Nc3cccc(C#N)c3)n2)ccn1 [Example B296],2.37,
CN(CCC#N)C(=O)c1cc(-c2ncnc(Nc3cccc(OC(F)F)c3)n2)ccn1 [Example B297],2.37,
CC(C)N(C)C(=O)c1cc(-c2ncnc(Nc3cccc(OC(F)F)c3)n2)ccn1 [Example B302],2.78,
COCC(C1CC1)N(C)C(=O)c1cc(-c2ncnc(Nc3cccc(OC(F)F)c3)n2)ccn1 (centres unmarked) [Example B303],2.94,
CC(=O)Nc1cccc(Nc2ncnc(-c3ccnc(C(=O)N(C)C)c3)n2)c1 [Example B307],1.4,
CC(=O)Nc1cccc(Nc2ncnc(-c3ccnc(C(=O)N(C)CC(C)C)c3)n2)c1 [Example B308],2.1,
CN(CCC#N)C(=O)c1cc(-c2ncnc(Nc3ccccc3)n2)ccn1 [Example B310],2.07,
CCN(CC)C(=O)c1cc(-c2ncnc(Nc3ccccc3)n2)ccn1 [Example B311],2.55,
CN(CC1CC1)C(=O)c1cc(-c2ncnc(Nc3ccccc3)n2)ccn1 [Example B313],2.65,
CN(C)C(=O)c1cc(-c2ncnc(Nc3ccccc3)n2)ccn1 [Example B314],1.95,
CC(C)CN(C)C(=O)c1cc(-c2ncnc(Nc3ccccc3)n2)ccn1 [Example B315],2.84,
CC(C)N(C)C(=O)c1cc(-c2ncnc(Nc3ccccc3)n2)ccn1 [Example B317],2.45,
CCN(C)C(=S)c1cc(-c2ncnc(Nc3ccccc3)n2)ccn1 [Example B318],2.73,
CCN(CC)C(=S)c1cc(-c2ncnc(Nc3cccc(C(F)(F)F)c3)n2)ccn1 [Example B326],3.78,
CCN(CC)C(=S)c1cc(-c2ncnc(Nc3cccc(C(F)F)c3)n2)ccn1 [Example B328],3.27,
CN(CC1CC1)C(=S)c1cc(-c2ncnc(Nc3cccc(Cl)c3)n2)ccn1 [Example B330],3.76,
CN(CC1CC1)C(=S)c1cc(-c2ncnc(Nc3cccc(C(F)F)c3)n2)ccn1 [Example B331],3.37,

Structure (SMILES),logP,chromatographic logP
CCCN(C)C(=S)c1cc(-c2ncnc(Nc3cccc(Cl)c3)n2)ccn1 [Example B336],3.65,
CN(CC1CC1)C(=S)c1cc(-c2ncnc(Nc3ccccc3)n2)ccn1 [Example B337],3.23,
CCN(C)C(=S)c1cc(-c2ncnc(N(C(=O)COC)c3cccc(F)c3)n2)ccn1 [Example B338],2.62,
CCN(C)C(=S)c1cc(-c2ncnc(N(C(C)=O)c3cccc(F)c3)n2)ccn1 [Example B339],2.73,
CN(CCC#N)C(=S)c1cc(-c2ncnc(Nc3cccc(Cl)c3)n2)ccn1 [Example B343],3.02,
"CC(=O)N(c1ccccc1)c1ncnc(-c2ccnc(C(=S)N(C)CC3CC3)c2)n1 [Example B344, N-(4-{2-[(cyclopropylmethyl)(methyl)carbamothioyl]pyridin-4-yl}-1,3,5-triazin-2-yl)-N-phenylacetamide]",,3.02
CCN(CC)C(=O)c1cc(-c2ncnc(Nc3cccc(OC(F)(F)C(F)F)c3)n2)ccn1 [Example B348],3.29,
CCN(CC)C(=O)c1cc(-c2ncnc(Nc3ccc(C)c(Cl)c3)n2)ccn1 [Example B349],3.44,
CCN(CC)C(=O)c1cc(-c2ncnc(Nc3ccc(F)c(C(F)F)c3)n2)ccn1 [Example B353],2.86,
Cc1ccc(Nc2ncnc(-c3ccnc(C(=O)N(C)C)c3)n2)cc1Cl [Example B359],2.71,
CN(C)C(=O)c1cc(-c2ncnc(Nc3cccc(OC(F)(F)C(F)F)c3)n2)ccn1 [Example B364],2.64,
Cc1ccc(Nc2ncnc(-c3ccnc(C(=O)N(C)CC4CC4)c3)n2)cc1Cl [Example B367],3.53,
CN(CC(F)F)C(=O)c1cc(-c2ncnc(Nc3cccc(Cl)c3)n2)ccn1 [Example B373],3.06,
CCCN(C)C(=O)c1cc(-c2ncnc(Nc3ccc(C)c(Cl)c3)n2)ccn1 [Example B374],3.42,
CN(C)C(=O)c1cc(-c2ncnc(Nc3ccc(Cl)c(C(F)F)c3)n2)ccn1 [Example B385],2.59,
CN(CCC#N)C(=O)c1cc(-c2ncnc(Nc3ccc(Cl)c(C(F)F)c3)n2)ccn1 [Example B389],2.69,
CN(CC1CC1)C(=O)c1cc(-c2ncnc(Nc3ccc(Cl)c(C(F)F)c3)n2)ccn1 [Example B390],3.31,

# Further lines, results first:
logP,chromatographic logP,Structure (SMILES)
2.88,,CCN(CC)C(=O)c1cc(-c2ncnc(Nc3cccc(OC(F)F)c3)n2)ccn1 [Example B298]
2.86,,CCCN(C)C(=O)c1cc(-c2ncnc(Nc3cccc(OC(F)F)c3)n2)ccn1 [Example B299]
2.25,,CN(C)C(=O)c1cc(-c2ncnc(Nc3cccc(OC(F)F)c3)n2)ccn1 [Example B300]
3.15,,CC(C)CN(C)C(=O)c1cc(-c2ncnc(Nc3cccc(OC(F)F)c3)n2)ccn1 [Example B301]
1.87,,CCCN(C)C(=O)c1cc(-c2ncnc(Nc3cccc(NC(C)=O)c3)n2)ccn1 [Example B305]
2.55,,CCCN(C)C(=O)c1cc(-c2ncnc(Nc3ccccc3)n2)ccn1 [Example B312]
2.2,,CCN(C)C(=O)c1cc(-c2ncnc(Nc3ccccc3)n2)ccn1 [Example B316]
3.37,,CCN(CC)C(=S)c1cc(-c2ncnc(Nc3ccc(F)c(C(F)F)c3)n2)ccn1 [Example B327]
3.29,,CC(C)N(C)C(=S)c1cc(-c2ncnc(Nc3ccc(F)c(C(F)F)c3)n2)ccn1 [Example B329]
2.73,,CN(C)C(=S)c1cc(-c2ncnc(Nc3ccc(F)c(C(F)F)c3)n2)ccn1 [Example B332]
3.04,,CCN(C)C(=S)c1cc(-c2ncnc(Nc3ccc(F)c(C(F)F)c3)n2)ccn1 [Example B333]
3.4,,CCCN(C)C(=S)c1cc(-c2ncnc(Nc3ccc(F)c(C(F)F)c3)n2)ccn1 [Example B334]
3.71,,CC(C)CN(C)C(=S)c1cc(-c2ncnc(Nc3ccc(F)c(C(F)F)c3)n2)ccn1 [Example B335]
2.82,,CN(CCC#N)C(=S)c1cc(-c2ncnc(Nc3ccc(F)c(C(F)F)c3)n2)ccn1 [Example B340]
2.94,,CCN(C)C(=S)c1cc(-c2ncnc(Nc3cccc(C(F)F)c3)n2)ccn1 [Example B341]
3.35,,CN(CC(F)F)C(=S)c1cc(-c2ncnc(Nc3ccc(F)c(C(F)F)c3)n2)ccn1 [Example B342]
3.23,,CCN(CC)C(=O)c1cc(-c2ncnc(Nc3cccc(C(F)(F)F)c3)n2)ccn1 [Example B346]
3.23,,CCN(CC)C(=O)c1cc(-c2ncnc(Nc3ccc(Cl)c(C(F)F)c3)n2)ccn1 [Example B352]
2.1,,CN(C)C(=O)c1cc(-c2ncnc(Nc3cc(F)ccc3F)n2)ccn1 [Example B354]
2.58,,CN(C)C(=O)c1cc(-c2ncnc(Nc3cccc(C(F)(F)F)c3)n2)ccn1 [Example B355]
3.25,,CCCN(C)C(=O)c1cc(-c2ncnc(Nc3cccc(C(F)(F)F)c3)n2)ccn1 [Example B356]
3.33,,CN(CC1CC1)C(=O)c1cc(-c2ncnc(Nc3cccc(C(F)(F)F)c3)n2)ccn1 [Example B357]
2.39,,CCN(C)C(=O)c1cc(-c2ncnc(Nc3cc(F)ccc3F)n2)ccn1 [Example B358]

logP,chromatographic logP,Structure (SMILES)
2.75,,COCCN(C)C(=O)c1cc(-c2ncnc(Nc3cccc(C(F)(F)F)c3)n2)ccn1 [Example B361]
3.58,,CC(C)CN(C)C(=O)c1cc(-c2ncnc(Nc3cccc(C(F)(F)F)c3)n2)ccn1 [Example B362]
2.68,,CN(CCC#N)C(=O)c1cc(-c2ncnc(Nc3cccc(C(F)(F)F)c3)n2)ccn1 [Example B363]
3.33,,Cc1ccc(Nc2ncnc(-c3ccnc(C(=O)N(C)C(C)C)c3)n2)cc1Cl [Example B365]
2.8,,Cc1ccc(Nc2ncnc(-c3ccnc(C(=O)N(C)CCC#N)c3)n2)cc1Cl [Example B366]
3.78,,Cc1ccc(Nc2ncnc(-c3ccnc(C(=O)N(C)CC(C)C)c3)n2)cc1Cl [Example B368]
2.45,,CN(CC(F)F)C(=O)c1cc(-c2ncnc(Nc3cccc(C#N)c3)n2)ccn1 [Example B369]
2.86,,CN(CC(F)F)C(=O)c1cc(-c2ncnc(Nc3cccc(OC(F)F)c3)n2)ccn1 [Example B370]
2.75,,CN(CC(F)F)C(=O)c1cc(-c2ncnc(Nc3cccc(C(F)F)c3)n2)ccn1 [Example B371]
2.96,,CSc1cccc(Nc2ncnc(-c3ccnc(C(=O)N(C)CC(F)F)c3)n2)c1 [Example B372]
3.09,,CCCCN(C)C(=O)c1cc(-c2ncnc(Nc3cccc(F)c3)n2)ccn1 [Example B376]
2.25,,CN(C)C(=O)c1cc(-c2ncnc(Nc3ccc(F)c(F)c3)n2)ccn1 [Example B377]
2.55,,CCN(C)C(=O)c1cc(-c2ncnc(Nc3ccc(F)c(F)c3)n2)ccn1 [Example B378]
2.86,,CCCN(C)C(=O)c1cc(-c2ncnc(Nc3ccc(F)c(F)c3)n2)ccn1 [Example B379]
3.19,,CC(C)CN(C)C(=O)c1cc(-c2ncnc(Nc3ccc(F)c(F)c3)n2)ccn1 [Example B380]
2.98,,CN(CC1CC1)C(=O)c1cc(-c2ncnc(Nc3ccc(F)c(F)c3)n2)ccn1 [Example B381]
2.86,,CN(CC(F)F)C(=O)c1cc(-c2ncnc(Nc3ccc(F)c(F)c3)n2)ccn1 [Example B382]
2.78,,CC(C)N(C)C(=O)c1cc(-c2ncnc(Nc3ccc(F)c(F)c3)n2)ccn1 [Example B383]
2.35,,CN(CCC#N)C(=O)c1cc(-c2ncnc(Nc3ccc(F)c(F)c3)n2)ccn1 [Example B384]
2.88,,CCN(C)C(=O)c1cc(-c2ncnc(Nc3ccc(Cl)c(C(F)F)c3)n2)ccn1 [Example B386]
3.23,,CCCN(C)C(=O)c1cc(-c2ncnc(Nc3ccc(Cl)c(C(F)F)c3)n2)ccn1 [Example B387]
3.58,,CC(C)CN(C)C(=O)c1cc(-c2ncnc(Nc3ccc(Cl)c(C(F)F)c3)n2)ccn1 [Example B388]
3.15,,CC(C)N(C)C(=O)c1cc(-c2ncnc(Nc3ccc(Cl)c(C(F)F)c3)n2)ccn1 [Example B391]
